Experiment: Influence of pH on content of the compound in solution after storage (Example 1, HPLC)
Assay type: physicochemical
Details: 1 mg/mL in Britton-Robinson buffer at pH 2, 3, 4, 5 and 6, 1 month storage at 25 or 40° C.
Description: A solution was prepared so as to contain the compound at 1 mg/mL of a solvent, and divided as aliquots in clear test tubes and the tubes were tightly sealed. The Britton-Robinson buffer was used as the solvent to prepare sample solutions at pH 2, 3, 4, 5 and 6.
After 1 month storage of these sample solutions under each temperature condition of 25 or 40° C., the contents of the compound were determined by HPLC under the following measurement conditions.
Sample solution: 1 mL of specimen/25 mL of mobile phase
Temperature: Room temperature Mobile phase: 1 M Et3N (adjusted at pH 8 with AcOH):CH3CN:H2O=50:250:700 Flow rate: […]
Loaded volume: 20 μL Quantification method: Corrected area percentage

## Cl.O.O.O.O=C1CCC(c2ccc(Nc3ccncc3)cc2)=NN1 [the compound, 6-[4-(4-pyridylamino)phenyl]-4,5-dihydro-3(2H)-pyridazinone hydrochloride trihydrate]
  remaining ratio of the compound: highest at pH 5 to 6

From US20090062295A1, “Pharmaceutical Products” (MITSUBISHI PHARMA CORPORATION, priority 2005, published 2009)
